Measured values taken from the NIST ThermoML archive (doi:10.1021/je100615j).
Numbers after ± are expanded uncertainties.

Assay: mn = molality of the nth substance listed, in mol/kg
Conditions: 101.3 kPa, Liquid, Vibrating tube method

O=[N+]([O-])[O-].O=[N+]([O-])[O-].O=[N+]([O-])[O-].[Ce+3] [cerium nitrate] + O
mass density (293.15 K, m1 = 0.5112): 1131.2 ± 0.8 kg/m3
mass density (293.15 K, m1 = 1.031): 1252.8 ± 1.5 kg/m3
mass density (293.15 K, m1 = 1.555): 1361.9 ± 2.3 kg/m3
mass density (293.15 K, m1 = 1.997): 1446.2 ± 3.1 kg/m3
mass density (293.15 K, m1 = 3.131): 1633.2 ± 5.4 kg/m3
mass density (293.15 K, m1 = 3.968): 1746.4 ± 7.1 kg/m3
mass density (293.15 K, m1 = 4.462): 1806 ± 8.1 kg/m3
mass density (298.15 K, m1 = 0.5112): 1129.3 ± 0.8 kg/m3
mass density (298.15 K, m1 = 1.031): 1250.2 ± 1.5 kg/m3
mass density (298.15 K, m1 = 1.555): 1358.8 ± 2.3 kg/m3
mass density (298.15 K, m1 = 1.997): 1443.1 ± 3.1 kg/m3
mass density (298.15 K, m1 = 3.131): 1629.1 ± 5.4 kg/m3
mass density (298.15 K, m1 = 3.968): 1742.4 ± 7.1 kg/m3
mass density (298.15 K, m1 = 4.462): 1801.8 ± 8.1 kg/m3
mass density (308.15 K, m1 = 0.5112): 1124.7 ± 0.7 kg/m3
mass density (308.15 K, m1 = 1.031): 1244.4 ± 1.5 kg/m3
mass density (308.15 K, m1 = 1.555): 1352 ± 2.3 kg/m3
mass density (308.15 K, m1 = 1.997): 1435.7 ± 3.1 kg/m3
mass density (308.15 K, m1 = 3.131): 1620.5 ± 5.3 kg/m3
mass density (308.15 K, m1 = 3.968): 1733.1 ± 7 kg/m3
mass density (308.15 K, m1 = 4.462): 1792.2 ± 8 kg/m3

O=[N+]([O-])[O-].O=[N+]([O-])[O-].O=[N+]([O-])[O-].[Nd+3] [neodymium(III) nitrate] + O
mass density (293.15 K, m1 = 0.522): 1136.1 ± 0.8 kg/m3
mass density (293.15 K, m1 = 1.021): 1255.1 ± 1.5 kg/m3
mass density (293.15 K, m1 = 1.555): 1369.8 ± 2.4 kg/m3
mass density (293.15 K, m1 = 2.093): 1474.7 ± 3.4 kg/m3
mass density (293.15 K, m1 = 3.086): 1642.1 ± 5.4 kg/m3
mass density (293.15 K, m1 = 4.124): 1785.9 ± 7.6 kg/m3
mass density (293.15 K, m1 = 4.297): 1807 ± 8 kg/m3
mass density (298.15 K, m1 = 0.522): 1134.2 ± 0.8 kg/m3
mass density (298.15 K, m1 = 1.021): 1252.5 ± 1.5 kg/m3
mass density (298.15 K, m1 = 1.555): 1366.7 ± 2.4 kg/m3
mass density (298.15 K, m1 = 2.093): 1471.1 ± 3.4 kg/m3
mass density (298.15 K, m1 = 3.086): 1637.8 ± 5.4 kg/m3
mass density (298.15 K, m1 = 4.124): 1781.1 ± 7.6 kg/m3
mass density (298.15 K, m1 = 4.297): 1802.7 ± 8 kg/m3
mass density (308.15 K, m1 = 0.522): 1129.6 ± 0.8 kg/m3
mass density (308.15 K, m1 = 1.021): 1246.7 ± 1.5 kg/m3
mass density (308.15 K, m1 = 1.555): 1359.9 ± 2.3 kg/m3
mass density (308.15 K, m1 = 2.093): 1463.5 ± 3.3 kg/m3
mass density (308.15 K, m1 = 3.086): 1628.8 ± 5.3 kg/m3
mass density (308.15 K, m1 = 4.124): 1771.4 ± 7.5 kg/m3
mass density (308.15 K, m1 = 4.297): 1792.8 ± 7.9 kg/m3

O=[N+]([O-])[O-].O=[N+]([O-])[O-].O=[N+]([O-])[O-].[Y+3] [yttrium nitrate] + O
mass density (293.15 K, m1 = 0.4989): 1105.5 ± 0.6 kg/m3
mass density (293.15 K, m1 = 0.9965): 1202.6 ± 1.2 kg/m3
mass density (293.15 K, m1 = 1.497): 1290.8 ± 1.8 kg/m3
mass density (293.15 K, m1 = 1.982): 1368.7 ± 2.5 kg/m3
mass density (293.15 K, m1 = 2.947): 1502.8 ± 3.9 kg/m3
mass density (293.15 K, m1 = 3.945): 1615.7 ± 5.4 kg/m3
mass density (293.15 K, m1 = 4.957): 1708.9 ± 7 kg/m3
mass density (298.15 K, m1 = 0.4989): 1103.5 ± 0.6 kg/m3
mass density (298.15 K, m1 = 0.9965): 1200.2 ± 1.2 kg/m3
mass density (298.15 K, m1 = 1.497): 1287.8 ± 1.8 kg/m3
mass density (298.15 K, m1 = 1.982): 1365.4 ± 2.4 kg/m3
mass density (298.15 K, m1 = 2.947): 1498.9 ± 3.9 kg/m3
mass density (298.15 K, m1 = 3.945): 1611.4 ± 5.4 kg/m3
mass density (298.15 K, m1 = 4.957): 1704.3 ± 6.9 kg/m3
mass density (308.15 K, m1 = 0.4989): 1099.2 ± 0.6 kg/m3
mass density (308.15 K, m1 = 0.9965): 1194.7 ± 1.2 kg/m3
mass density (308.15 K, m1 = 1.497): 1281.4 ± 1.8 kg/m3
mass density (308.15 K, m1 = 1.982): 1358.2 ± 2.4 kg/m3
mass density (308.15 K, m1 = 2.947): 1490.5 ± 3.8 kg/m3
mass density (308.15 K, m1 = 3.945): 1602.2 ± 5.4 kg/m3
mass density (308.15 K, m1 = 4.957): 1694.7 ± 6.9 kg/m3
